Usually Ki stands for a dissociation constant, usually derived from enzyme kinetics or from competition with a known ligand. Higher therefore signals a looser hold on the target.

This assay deals with Nitric oxide synthase, brain (Bos taurus). Briefly: Inhibition against neuronal nitric oxide synthase (nNOS) from bovine brain was determined.

In turn, `C#CCNC(=N)N` [amino(prop-2-ynylamino)methaniminium] registered an inhibition constant Ki of 12 mM.
